Measured values published in patent publication US11203600B2 (Denali Therapeutics Inc., priority 2017, dated 2021).

Biological target: GST-hRIPK1 (8-327) (Homo sapiens (Human), UniProt Q13546)
Experiment: Fluorescent Polarization Binding (FP Binding) assay, RIPK1
Settings: 10 nM GST-hRIPK1 (8-327), 5 nM fluorescent-labeled ligand, RT, 30 min, mean of at least two independent experiments
Method in brief: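 Binding by fluorescence polarisation at RT: 10 nM baculovirus-expressed GST-hRIPK1 (8-327) and 5 nM fluorescent ligand, 30 min, in 50 mM HEPES pH 7.5, 50 mM MgCl2, 0.02% CHAPS, 1% DMSO. FP read at ex 531/em 595 nm. IC50 from normalised percent inhibition, mean of ≥2 experiments.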

GST-hRIPK1 (8-327), sequence (Q13546 8-327): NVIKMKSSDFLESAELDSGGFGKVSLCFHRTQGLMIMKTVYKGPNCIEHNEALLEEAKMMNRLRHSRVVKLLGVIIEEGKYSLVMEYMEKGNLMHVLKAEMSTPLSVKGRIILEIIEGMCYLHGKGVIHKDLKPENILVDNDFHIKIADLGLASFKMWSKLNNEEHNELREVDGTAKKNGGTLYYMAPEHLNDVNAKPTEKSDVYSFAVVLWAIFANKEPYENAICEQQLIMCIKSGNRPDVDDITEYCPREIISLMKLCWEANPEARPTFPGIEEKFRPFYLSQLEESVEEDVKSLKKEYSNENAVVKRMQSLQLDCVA

Row | SMILES | IC50 [nM]
1 | Cc1cnc(N2CCC(F)(C(=O)N3CCOc4c(C#N)cncc4C3)CC2)nc1 [Example 163, 4-[4-fluoro-1-(5-methylpyrimidin-2-yl)piperidine-4-carbonyl]-3,5-dihydro-2H-pyrido[3,4-f][1,4]oxazepine-9-carbonitrile] | 100 to 1000
2 | N#Cc1cncc2c1OCCN(C(=O)C1(F)CCN(c3ncc(Cl)cn3)CC1)C2 [Example 164, 4-[1-(5-chloropyrimidin-2-yl)-4-fluoro-piperidine-4-carbonyl]-3,5-dihydro-2H-pyrido[3,4-f][1,4]oxazepine-9-carbonitrile] | 0.1 to 100
3 | N#Cc1cncc2c1OCCN(C(=O)C1(F)CCN(c3ncc4c(n3)COC4)CC1)C2 [Example 165, 4-[1-(5,7-dihydrofuro[3,4-d]pyrimidin-2-yl)-4-fluoro-piperidine-4-carbonyl]-3,5-dihydro-2H-pyrido[3,4-f][1,4]oxazepine-9-carbonitrile] | 100 to 1000
4 | N#Cc1cncc2c1OCCN(C(=O)C1(F)CCN(c3nccc4ncnn34)CC1)C2 [Example 166, 4-[4-fluoro-1-([1,2,4]triazolo[1,5-c]pyrimidin-5-yl)piperidine-4-carbonyl]-3,5-dihydro-2H-pyrido[3,4-f][1,4]oxazepine-9-carbonitrile] | 100 to 1000
5 | N#Cc1cncc2c1OCCN(C(=O)C1(F)CCN(c3nccc(C(F)(F)F)n3)CC1)C2 [Example 167, 4-[4-fluoro-1-[4-(trifluoromethyl)pyrimidin-2-yl]piperidine-4-carbonyl]-3,5-dihydro-2H-pyrido[3,4-f][1,4]oxazepine-9-carbonitrile] | 100 to 1000
6 | Cc1cc(C(F)(F)F)nc(N2CCC(F)(C(=O)N3CCOc4c(C#N)cncc4C3)CC2)n1 [Example 168, 4-[4-fluoro-1-[4-methyl-6-(trifluoromethyl)pyrimidin-2-yl]piperidine-4-carbonyl]-3,5-dihydro-2H-pyrido[3,4-f][1,4]oxazepine-9-carbonitrile] | 100 to 1000
7 | Cn1cnc2cnc(N3CCC(F)(C(=O)N4CCOc5c(C#N)cncc5C4)CC3)nc21 [Example 169, 4-[4-fluoro-1-(9-methylpurin-2-yl)piperidine-4-carbonyl]-3,5-dihydro-2H-pyrido[3,4-f][1,4]oxazepine-9-carbonitrile] | 100 to 1000
8 | N#Cc1cncc2c1OCCN(C(=O)C1(F)CCN(c3ncc(C(F)(F)F)cn3)CC1)C2 [Example 170, 4-[4-fluoro-1-[5-(trifluoromethyl)pyrimidin-2-yl]piperidine-4-carbonyl]-3,5-dihydro-2H-pyrido[3,4-f][1,4]oxazepine-9-carbonitrile] | 100 to 1000
9 | N#Cc1cncc2c1OCCN(C(=O)C1(F)CCN(c3ccnc(C(F)(F)F)n3)CC1)C2 [Example 171] | 100 to 1000
10 | COc1nccc(N2CCC(F)(C(=O)N3CCOc4c(C#N)cncc4C3)CC2)n1 [Example 172, 4-[4-fluoro-1-(2-methoxypyrimidin-4-yl)piperidine-4-carbonyl]-3,5-dihydro-2H-pyrido[3,4-f][1,4]oxazepine-9-carbonitrile] | 100 to 1000
11 | Cc1ocnc1C(=O)N1CCC(F)(C(=O)N2CCOc3c(C#N)cncc3C2)CC1 [Example 173, 4-[4-fluoro-1-(5-methyloxazole-4-carbonyl)piperidine-4-carbonyl]-3,5-dihydro-2H-pyrido[3,4-f][1,4]oxazepine-9-carbonitrile] | 100 to 1000
12 | CC(C)COC(=O)N1CCC(F)(C(=O)N2CCOc3c(C#N)cncc3C2)CC1 [Example 174, isobutyl 4-(9-cyano-3,5-dihydro-2H-pyrido[3,4-f][1,4]oxazepine-4-carbonyl)-4-fluoro-piperidine-1-carboxylate] | > 1000
13 | CC(C)(C)C(=O)N1CCOc2c(C#N)cncc2C1 [Example 175, 4-(2,2-dimethylpropanoyl)-3,5-dihydro-2H-pyrido[3,4-f][1,4]oxazepine-9-carbonitrile] | 0.1 to 100
14 | N#Cc1cncc2c1OCCN(C(=O)C1(F)CCN(c3ncc(F)cn3)C1)C2 (stereo not shown) [Example 176, 4-[3-fluoro-1-(5-fluoropyrimidin-2-yl)pyrrolidine-3-carbonyl]-3,5-dihydro-2H-pyrido[3,4-f][1,4]oxazepine-9-carbonitrile] | > 1000
15 | N#Cc1cncc2c1OCCN(C(=O)C1(Cl)CCN(c3ncc(F)cn3)CC1)C2 [Example 177, 4-[4-chloro-1-(5-fluoropyrimidin-2-yl)piperidine-4-carbonyl]-3,5-dihydro-2H-pyrido[3,4-f][1,4]oxazepine-9-carbonitrile] | 0.1 to 100
16 | CCOc1nc(N2CCC(F)(C(=O)N3CCOc4c(C#N)cncc4C3)CC2)ncc1F [Example 178, 4-[1-(4-ethoxy-5-fluoro-pyrimidin-2-yl)-4-fluoro-piperidine-4-carbonyl]-3,5-dihydro-2H-pyrido[3,4-f][1,4]oxazepine-9-carbonitrile] | 0.1 to 100
17 | N#Cc1cncc2c1OCCN(C(=O)C1(F)CCN(c3ccnc4nccn34)CC1)C2 [Example 180] | 100 to 1000

Row | SMILES | IC50 [nM]
18 | CC(C)(CSc1ncc(F)cn1)C(=O)N1CCOc2c(C#N)cncc2C1 [Example 181] | > 1000
19 | N#Cc1cncc2c1OCCN(C(=O)C1(C#N)CCN(c3ncc(F)cn3)CC1)C2 [Example 182, 4-[4-cyano-1-(5-fluoropyrimidin-2-yl)piperidine-4-carbonyl]-3,5-dihydro-2H-pyrido[3,4-f][1,4]oxazepine-9-carbonitrile] | 100 to 1000
20 | N#Cc1cccc2c1OCCN(C(=O)C1CCN(c3ncc(F)cn3)CC1)C2 [Example 183, 4-[1-(5-fluoropyrimidin-2-yl)piperidine-4-carbonyl]-3,5-dihydro-2H-1,4-benzoxazepine-9-carbonitrile] | 0.1 to 100
21 | COC1(C(=O)N2CCOc3c(C#N)cncc3C2)CCN(c2ncc(F)cn2)CC1 [Example 185, 4-[1-(5-fluoropyrimidin-2-yl)-4-methoxy-piperidine-4-carbonyl]-3,5-dihydro-2H-pyrido[3,4-f][1,4]oxazepine-9-carbonitrile] | 0.1 to 100
22 | COc1cnc(Cl)nc1N1CCC(F)(C(=O)N2CCOc3c(C#N)cncc3C2)CC1 [Example 186, 4-[1-(2-chloro-5-methoxy-pyrimidin-4-yl)-4-fluoro-piperidine-4-carbonyl]-3,5-dihydro-2H-pyrido[3,4-f][1,4]oxazepine-9-carbonitrile] | > 1000
23 | CC1CN(c2ncc(F)cn2)CCC1C(=O)N1CCOc2c(C#N)cncc2C1 (stereo not shown) [Example 187, 4-[1-(5-fluoropyrimidin-2-yl)-3-methyl-piperidine-4-carbonyl]-3,5-dihydro-2H-pyrido[3,4-f][1,4]oxazepine-9-carbonitrile] | 0.1 to 100
24 | N#Cc1cncc2c1OCCN(C(=O)C1(F)CCN(c3ccc(F)cn3)CC1)C2 [Example 188, 4-[4-fluoro-1-(5-fluoro-2-pyridyl)piperidine-4-carbonyl]-3,5-dihydro-2H-pyrido[3,4-f][1,4]oxazepine-9-carbonitrile] | 0.1 to 100
25 | N#Cc1cncc2c1OCCN(C(=O)C1(F)CCN(c3ncc(C(F)F)cn3)CC1)C2 [Example 189, 4-[1-[5-(difluoromethyl)pyrimidin-2-yl]-4-fluoro-piperidine-4-carbonyl]-3,5-dihydro-2H-pyrido[3,4-f][1,4]oxazepine-9-carbonitrile] | 100 to 1000
26 | COC1(C(=O)N2CCOc3c(C#N)cncc3C2)CCN(c2ccc(F)cn2)CC1 [Example 190, 4-[1-(5-fluoro-2-pyridyl)-4-methoxy-piperidine-4-carbonyl]-3,5-dihydro-2H-pyrido[3,4-f][1,4]oxazepine-9-carbonitrile] | 100 to 1000
27 | COc1nc(N2CCC(F)(C(=O)N3CCOc4c(C#N)cncc4C3)CC2)ncc1F [Example 191, 4-[4-fluoro-1-(5-fluoro-4-methoxy-pyrimidin-2-yl)piperidine-4-carbonyl]-3,5-dihydro-2H-pyrido[3,4-f][1,4]oxazepine-9-carbonitrile] | 0.1 to 100
28 | N#Cc1cncc2c1OCCN(C(=O)C1(F)CCN(c3ncc(F)cc3F)CC1)C2 [Example 192, 4-[1-(3,5-difluoro-2-pyridyl)-4-fluoro-piperidine-4-carbonyl]-3,5-dihydro-2H-pyrido[3,4-f][1,4]oxazepine-9-carbonitrile] | 0.1 to 100
29 | N#Cc1cncc2c1OCCN(C(=O)C1(F)CCN(c3cnc(F)c(F)c3)CC1)C2 [Example 193, 4-[1-(5,6-difluoro-3-pyridyl)-4-fluoro-piperidine-4-carbonyl]-3,5-dihydro-2H-pyrido[3,4-f][1,4]oxazepine-9-carbonitrile] | > 1000
30 | COc1nc(N2CCC(OC)(C(=O)N3CCOc4c(C#N)cncc4C3)CC2)ncc1F [Example 194, 4-[1-(5-fluoro-4-methoxy-pyrimidin-2-yl)-4-methoxy-piperidine-4-carbonyl]-3,5-dihydro-2H-pyrido[3,4-f][1,4]oxazepine-9-carbonitrile] | 0.1 to 100
31 | COc1nc(N2CCC(OC)(C(=O)N3CCOc4c(C#N)cncc4C3)CC2)nc(C)c1F [Example 195, 4-[1-(5-fluoro-4-methoxy-6-methyl-pyrimidin-2-yl)-4-methoxy-piperidine-4-carbonyl]-3,5-dihydro-2H-pyrido[3,4-f][1,4]oxazepine-9-carbonitrile] | > 1000
32 | COc1nc(N2CCC(F)(C(=O)N3CCOc4c(C#N)cncc4C3)CC2)nc(C)c1F [Example 196, 4-[4-fluoro-1-(5-fluoro-4-methoxy-6-methyl-pyrimidin-2-yl)piperidine-4-carbonyl]-3,5-dihydro-2H-pyrido[3,4-f][1,4]oxazepine-9-carbonitrile] | 100 to 1000
33 | COc1nc(N2CCC(F)(C(=O)N3CCOc4c(C#N)cncc4C3)CC2)nc2ccccc12 [Example 197, 4-[4-fluoro-1-(4-methoxyquinazolin-2-yl)piperidine-4-carbonyl]-3,5-dihydro-2H-pyrido[3,4-f][1,4]oxazepine-9-carbonitrile] | 100 to 1000
34 | N#Cc1cncc2c1OCCN(C(=O)C1(F)CCN(c3cnc4ccccc4n3)CC1)C2 [Example 198, 4-(4-fluoro-1-quinoxalin-2-yl-piperidine-4-carbonyl)-3,5-dihydro-2H-pyrido[3,4-f][1,4]oxazepine-9-carbonitrile] | 100 to 1000
